For 16 molecules, EC50 results are on record in US20230144824A1, “1H-PYRAZOLO[4,3-d]PYRIMIDINE COMPOUNDS AS TOLL-LIKE RECEPTOR 7 (TLR7) AGONISTS” (BRISTOL-MYERS SQUIBB COMPANY, priority 2020, published 2023).

One experiment has as its target T1, human TLR7 (Homo sapiens, UniProt Q9NYK1).
T1 construct: host or cells: HEK-Blue TLR7 cells (engineered human embryonic kidney cells)
T1 sequence (Q9NYK1 27-1049): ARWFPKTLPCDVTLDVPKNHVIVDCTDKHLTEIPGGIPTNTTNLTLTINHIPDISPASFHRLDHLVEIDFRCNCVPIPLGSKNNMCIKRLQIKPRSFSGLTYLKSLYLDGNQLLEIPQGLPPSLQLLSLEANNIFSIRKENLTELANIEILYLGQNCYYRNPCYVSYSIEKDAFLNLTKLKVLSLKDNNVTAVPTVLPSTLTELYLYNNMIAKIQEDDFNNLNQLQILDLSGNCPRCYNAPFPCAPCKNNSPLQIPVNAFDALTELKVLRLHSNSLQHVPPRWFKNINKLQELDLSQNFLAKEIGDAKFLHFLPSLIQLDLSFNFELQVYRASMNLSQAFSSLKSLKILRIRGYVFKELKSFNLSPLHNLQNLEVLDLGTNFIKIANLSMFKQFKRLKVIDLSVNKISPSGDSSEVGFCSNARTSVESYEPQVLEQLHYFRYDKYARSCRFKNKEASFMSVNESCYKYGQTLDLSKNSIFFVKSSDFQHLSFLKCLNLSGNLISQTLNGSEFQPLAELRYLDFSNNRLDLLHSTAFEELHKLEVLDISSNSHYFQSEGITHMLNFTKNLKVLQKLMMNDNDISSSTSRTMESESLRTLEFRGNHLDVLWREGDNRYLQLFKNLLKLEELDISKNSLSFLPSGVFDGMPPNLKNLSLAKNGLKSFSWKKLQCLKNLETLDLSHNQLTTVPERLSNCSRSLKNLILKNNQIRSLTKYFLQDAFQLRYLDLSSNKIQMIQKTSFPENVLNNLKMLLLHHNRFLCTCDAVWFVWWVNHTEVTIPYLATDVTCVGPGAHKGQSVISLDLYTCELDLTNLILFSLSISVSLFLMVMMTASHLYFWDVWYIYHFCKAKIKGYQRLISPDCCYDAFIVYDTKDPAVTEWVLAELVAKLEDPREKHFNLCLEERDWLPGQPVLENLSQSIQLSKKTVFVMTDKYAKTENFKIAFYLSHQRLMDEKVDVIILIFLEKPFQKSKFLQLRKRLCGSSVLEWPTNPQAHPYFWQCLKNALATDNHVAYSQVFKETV
In words: Human TLR7 agonist activity assay (HEK-Blue TLR7 SEAP reporter). The class given is cell-based. The following applies: HEK-Blue TLR7 cells, 18 h treatment, average where assay performed multiple times, read-out: hTLR7 Agonism EC50. The procedure, abridged: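 HEK-Blue TLR7 cells (15,000/well) treated with compound for 18 h at 37 °C, 5% CO2. Secreted SEAP measured with Quanti-Blue, 30 min, OD 620 nm. EC50 taken as concentration giving half-maximal response between baseline and maximum.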

The test system of a further experiment is CD69. In words: Induction of CD69 in human whole blood. Format: cell-based. The following applies: Homo sapiens, 17 h, 100% set to 1 uM of resiquimod, average where assay performed multiple times, read-out: hWB CD69 EC50. The procedure: The induction of Type I interferon (IFN) MX-1 genes and the B-cell activation marker CD69 are downstream events that occur upon activation of the TLR7 pathway. The following is a human whole blood assay that measures their induction in response to a TLR7 agonist.
Heparinized human whole blood was harvested from human subjects and treated with test TLR7 agonist compounds at 1 mM. The blood was diluted with RPMI 1640 media and Echo was used to predot 10 nL per well giving a final concentration of 1 uM (10 nL in 10 uL of blood). After mixing on a shaker for 30 sec, the plates were covered and placed in a 37° C. chamber for o/n=17 hrs. Fixing/lysis buffer was prepared (5×->1× in H2O, warm at 37° C.; Cat #BD 558049) and kept the perm buffer (on ice) for later use.
For surface markers staining (CD69): prepared surface Abs: 0.045 ul hCD14-FITC (ThermoFisher Cat #MHCD1401)+0.6 ul hCD19-ef450 (ThermoFisher Cat #48-0198-42)+1.5 ul hCD69-PE (cat #BD555531)+0.855 ul FACS buffer. Added 3 ul/well, spin1000 rpm for 1 min and mixed on shaker for 30 sec, put on ice for 30 mins. Stop stimulation after 30 minutes with 70 uL of prewarmed 1× fix/lysis buffer and use Feliex mate to resuspend (15 times, change tips for each plate) and incubate at 37 C for 10 minutes.
Centrifuge at 2000 rpm for 5 minutes aspirate with HCS plate washer, mix on shaker for 30 sec and then wash with 70 uL in dPBS and pelleted 2×s (2000 rpm for 5 min) and 50 ul wash in FACS buffer pelleted 1×s (2000 rpm for 5 min). Mix on shaker for 30 sec. For Intracellular markers staining (MX-1): Add 50 ul of BD Perm buffer III and mix on shaker for 30 sec. Incubate on ice for 30 minutes (in the dark). Wash with 50 uL of FACS buffer 2×(spin @2300 rpm×5 min after perm) followed by mixing on shaker for 30 sec. Resuspended in 20 ul of FACS buffer containing MX1 antibody ( )(4812)-Alexa 647: Novus Biologicals #NBP2-43704AF647) 20 ul FACS bf+0.8 ul hIgG+0.04 ul MX-1. Spin 1000 rpm for 1 min, mix on shaker for 30 se and the samples were incubated at RT in the dark for 45 minutes followed by washing 2×FACS buffer (spin @2300 rpm×5 min after perm). Resuspend 20 ul (35 uL total per well) of FACS buffer and cover with foil and place in 4° C. to read the following day. Plates were read on iQuePlus. The results were loaded into toolset and IC50 curves are generated in curve master. The y-axis 100% is set to 1 uM of resiquimod.

Consider `CCCCNc1nc(N)nc2cnn(Cc3ncc(C4CCNCC4)cc3OC)c12` [Compound 101, N7-butyl-1-{[3-methoxy-5-(piperidin-4-yl)pyridin-2-yl]methyl}-1H-pyrazolo[4,3-d]pyrimidine-5,7-diamine], for which the EC50 was 56.6 nM at human TLR7 and 9.3 nM with CD69.
With `CCCCNc1nc(N)nc2cnn(Cc3ncc(C4CCN(CCO)CC4)cc3OC)c12` [Compound 114, 2-[4-(6-{[5-amino-7-(butylamino)-1H-pyrazolo[4,3-d]pyrimidin-1-yl]methyl}-5-methoxypyridin-3-yl)piperidin-1-yl]ethan-1-ol], the EC50 was found to be 49.9 nM at human TLR7 and 3.6 nM in the experiment on CD69.
The corresponding values for `CCC[C@@H](CCO)Nc1nc(N)nc2cnn(Cc3ccc(C4CN(CCO)CCN4)cc3OC)c12` (stereo partly drawn) [Compound 181, (3S)-3-{[5-amino-1-({4-[4-(2-hydroxyethyl)piperazin-2-yl]-2-methoxyphenyl}methyl)-1H-pyrazolo[4,3-d]pyrimidin-7-yl]amino}hexan-1-ol] are 139 nM and 4.57 nM.
The matching figures for `CCCCNc1nc(N)nc2cnn(Cc3ccc(C4CCN(S(C)(=O)=O)CC4)cc3OC)c12` [Compound 161, N7-butyl-1-{[4-(1-methanesulfonylpiperidin-4-yl)-2-methoxyphenyl]methyl}-1H-pyrazolo[4,3-d]pyrimidine-5,7-diamine]: 107 nM and 36 nM.
The corresponding values for `COc1cc(C2CCN(C3CCOCC3)CC2)cnc1Cn1ncc2nc(N)nc(NCc3cc(C)on3)c21` [Compound 141, 1-({3-methoxy-5-[1-(oxan-4-yl)piperidin-4-yl]pyridin-2-yl}methyl)-N7-[(5-methyl-1,2-oxazol-3-yl)methyl]-1H-pyrazolo[4,3-d]pyrimidine-5,7-diamine] are 73.2 nM and 16.2 nM.
For `CCC[C@@H](CCO)Nc1nc(N)nc2cnn(Cc3ncc(C4CCN(C5CC6(CNC6)C5)CC4)cc3OC)c12` [Compound 150, (3S)-3-[(5-amino-1-{[5-(1-{2-azaspiro[3.3]heptan-6-yl}piperidin-4-yl)-3-methoxypyridin-2-yl]methyl}-1H-pyrazolo[4,3-d]pyrimidin-7-yl)amino]hexan-1-ol], the results for the EC50 on human TLR7 and in the experiment on CD69 were 88.8 nM and 44.1 nM, respectively.
The corresponding values for `CCCCNc1nc(N)nc2cnn(Cc3cc(F)c(N4CCN(C(=O)CNC5CCOCC5)CC4)cc3OC)c12` [Compound 195, 1-[4-(4-{[5-amino-7-(butylamino)-1H-pyrazolo[4,3-d]pyrimidin-1-yl]methyl}-2-fluoro-5-methoxyphenyl)piperazin-1-yl]-2-[(oxan-4-yl)amino]ethan-1-one] are 53.3 nM and 128 nM.
The matching figures for `CCCCNc1nc(N)nc2cnn(Cc3ncc(C4CCN(C=O)CC4)cc3OC)c12` [Compound 132, 4-(6-{[5-amino-7-(butylamino)-1H-pyrazolo[4,3-d]pyrimidin-1-yl]methyl}-5-methoxypyridin-3-yl)piperidine-1-carbaldehyde]: 180 nM and 195 nM.
The matching figures for `CCCCNc1nc(N)nc2cnn(Cc3cc(F)c(N4CCN(C(=O)CNCCS(C)(=O)=O)CC4)cc3OC)c12` [Compound 197, 1-[4-(4-{[5-amino-7-(butylamino)-1H-pyrazolo[4,3-d]pyrimidin-1-yl]methyl}-2-fluoro-5-methoxyphenyl)piperazin-1-yl]-2-[(2-methanesulfonylethyl)amino]ethan-1-one]: 320 nM and 1000 nM.
For the molecule `CCCCNc1nc(N)nc2cnn(Cc3cc(F)c(N4CCN(C(=O)CNCC(C)(C)O)CC4)cc3OC)c12` [Compound 196, 1-[4-(4-{[5-amino-7-(butylamino)-1H-pyrazolo[4,3-d]pyrimidin-1-yl]methyl}-2-fluoro-5-methoxyphenyl)piperazin-1-yl]-2-[(2-hydroxy-2-methylpropyl)amino]ethan-1-one], the EC50 at human TLR7 is 131 nM; in the experiment on CD69 it was 81 nM.
The corresponding values for `CCC[C@@H](CCO)Nc1nc(N)nc2cnn(Cc3ncc(C4CCCN4)cc3OC)c12` (stereo partly drawn) [Compound 178, (3S)-3-[(5-amino-1-{[3-methoxy-5-(pyrrolidin-2-yl)pyridin-2-yl]methyl}-1H-pyrazolo[4,3-d]pyrimidin-7-yl)amino]hexan-1-ol] are 279 nM and 2 nM.
The matching figures for `COc1cc(C2CCNCC2)cnc1Cn1ncc2nc(N)nc(NCc3cc(C)on3)c21` [Compound 137, 1-{[3-methoxy-5-(piperidin-4-yl)pyridin-2-yl]methyl}-N7-[(5-methyl-1,2-oxazol-3-yl)methyl]-1H-pyrazolo[4,3-d]pyrimidine-5,7-diamine]: 357 nM and 118 nM.
In the case of `CCCCNc1nc(N)nc2cnn(Cc3ncc(C4CCN(CC(C)(C)O)CC4)cc3OC)c12` [Compound 146, 1-[4-(6-{[5-amino-7-(butylamino)-1H-pyrazolo[4,3-d]pyrimidin-1-yl]methyl}-5-methoxypyridin-3-yl)piperidin-1-yl]-2-methylpropan-2-ol], the EC50 on human TLR7 is 28.5 nM; with CD69, 25.8 nM.
The matching figures for `CCC[C@@H](CCO)Nc1nc(N)nc2cnn(Cc3cnc(C4CCN(C(C)C)CC4)cc3OC)c12` [Compound 167, (3S)-3-{[5-amino-1-({4-methoxy-6-[1-(propan-2-yl)piperidin-4-yl]pyridin-3-yl}methyl)-1H-pyrazolo[4,3-d]pyrimidin-7-yl]amino}hexan-1-ol]: 9.4 nM and 0.17 nM.
The corresponding values for `CCCCNc1nc(N)nc2cnn(Cc3cc(F)c(N4CCN(C(=O)CN5CCC[C@H]5CO)CC4)cc3OC)c12` [Compound 198, 1-[4-(4-{[5-amino-7-(butylamino)-1H-pyrazolo[4,3-d]pyrimidin-1-yl]methyl}-2-fluoro-5-methoxyphenyl)piperazin-1-yl]-2-[(2S)-2-(hydroxymethyl)pyrrolidin-1-yl]ethan-1-one] are 48.2 nM and 50.9 nM.
Regarding `COc1cc(C2CCN(C(=O)CCN(C)C)CC2)cnc1Cn1ncc2nc(N)nc(NCc3cc(C)on3)c21` [Compound 140, 1-(4-{6-[(5-amino-7-{[(5-methyl-1,2-oxazol-3-yl)methyl]amino}-1H-pyrazolo[4,3-d]pyrimidin-1-yl)methyl]-5-methoxypyridin-3-yl}piperidin-1-yl)-3-(dimethylamino)propan-1-one], the EC50 on human TLR7 came out at 530 nM; in the experiment on CD69, 128 nM.
